Source: patent US20250188043A1 (ReproNovo SA, priority 2023, published 2025)
Values belong to the compound of their own block, whether it stands above or below them.

What was measured:
[1] = Effect of oxygen (high oxygen content air or N2); assay type: physicochemical; settings: high oxygen content air or inert atmosphere (N2)
Source text: Oxidative degradation of leflutrozole is the primary pathway by which leflutrozole degrades outside of the synthesis process. Defluorination and oxidation that coincides with removal of the […] moiety yields the compound of Formula IV.

[2] = molecular target: T1, CYP1A2 (Homo sapiens, UniProt P05177); test: CYP inhibition, pooled human liver microsomes, probe substrates; assay type: in vitro ADME; settings: up to 100 μM
T1 construct: assessed by pooled human liver microsomes using enzyme selective probe substrates; from tissue; host or cells: pooled human liver microsomes
T1 sequence (P05177 1-516): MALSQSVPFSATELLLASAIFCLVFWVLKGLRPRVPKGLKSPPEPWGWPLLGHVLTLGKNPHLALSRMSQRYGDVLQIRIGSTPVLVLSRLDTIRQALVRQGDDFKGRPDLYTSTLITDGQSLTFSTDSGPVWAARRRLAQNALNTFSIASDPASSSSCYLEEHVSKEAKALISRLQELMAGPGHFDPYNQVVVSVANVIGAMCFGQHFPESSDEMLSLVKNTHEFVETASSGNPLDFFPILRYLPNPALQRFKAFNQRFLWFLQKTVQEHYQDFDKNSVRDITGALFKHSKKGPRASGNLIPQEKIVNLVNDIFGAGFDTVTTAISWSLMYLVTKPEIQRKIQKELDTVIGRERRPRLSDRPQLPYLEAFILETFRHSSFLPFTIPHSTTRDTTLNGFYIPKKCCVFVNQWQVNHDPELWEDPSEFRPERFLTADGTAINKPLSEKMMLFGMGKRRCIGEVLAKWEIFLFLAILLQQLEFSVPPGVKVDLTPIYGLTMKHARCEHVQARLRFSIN

[3] = molecular target: P-glycoprotein (Homo sapiens, UniProt P08183); test: P-glycoprotein inhibition; assay type: in vitro ADME; settings: at concentrations above 200 μM
[4] = molecular target: T2, CYP2E1 (Homo sapiens, UniProt P05181); test: CYP inhibition, pooled human liver microsomes, probe substrates; assay type: in vitro ADME; settings: up to 100 μM
T2 construct: assessed by pooled human liver microsomes using enzyme selective probe substrates; from tissue; host or cells: pooled human liver microsomes

[5] = molecular target: T3, CYP2C8 (Homo sapiens, UniProt P10632); test: as above; assay type: in vitro ADME; settings: up to 100 μM
T3 construct: assessed by pooled human liver microsomes using enzyme selective probe substrates; from tissue; host or cells: pooled human liver microsomes
T3 sequence (P10632 1-490): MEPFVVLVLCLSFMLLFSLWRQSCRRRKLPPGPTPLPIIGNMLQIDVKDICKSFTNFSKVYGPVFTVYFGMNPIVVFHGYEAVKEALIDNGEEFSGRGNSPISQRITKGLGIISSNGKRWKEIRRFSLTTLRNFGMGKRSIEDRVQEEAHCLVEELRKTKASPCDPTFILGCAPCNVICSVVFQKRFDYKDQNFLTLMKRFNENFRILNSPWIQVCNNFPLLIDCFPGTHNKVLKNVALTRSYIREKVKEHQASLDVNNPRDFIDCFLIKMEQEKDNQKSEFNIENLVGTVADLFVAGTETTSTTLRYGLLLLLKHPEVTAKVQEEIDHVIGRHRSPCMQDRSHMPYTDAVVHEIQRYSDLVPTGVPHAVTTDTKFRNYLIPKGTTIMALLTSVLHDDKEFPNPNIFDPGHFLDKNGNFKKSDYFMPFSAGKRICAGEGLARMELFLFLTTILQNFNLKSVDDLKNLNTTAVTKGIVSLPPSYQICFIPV

[6] = molecular target: T4, CYP2C9 (Homo sapiens, UniProt P11712); test: as above; assay type: in vitro ADME; settings: up to 100 μM
T4 construct: assessed by pooled human liver microsomes using enzyme selective probe substrates; from tissue; host or cells: pooled human liver microsomes

[7] = Pharmacokinetics in naïve female mice; settings: mouse, in vivo, NMP-PEG300 10/90
[8] = test system: obese and overweight men with hypogonadism and low total motile sperm count; test: Extension of treatment to 48 total weeks; assay type: in vivo, human; settings: for serum testosterone change from baseline / serum testosterone level: 48-week period
[9] = Excretion/elimination of 14C-labeled leflutrozole after oral dosing; assay type: in vivo; settings: female rats
[10] = Metabolic stability in rat liver microsomes; assay type: in vitro ADME
[11] = Pharmacokinetics in rats; assay type: in vivo; settings: for AUC(0-inf) / half-life / AUC(0-t) / Cmax: 1 mg/kg; for AUC(0-t): AUC 0-24^1/48^2 h
[12] = rat, in vivo, iv, 1 mg/kg i.v., PEG200-0.9% Saline-solution 40/60
[13] = rat, in vivo, po, 1 mg/kg p.o., PEG200-water-solution 40/60
[14] = rat, in vivo, po, 1 mg/kg p.o., Suspension 0.5% HPC

T2 sequence (P05181 whole entry): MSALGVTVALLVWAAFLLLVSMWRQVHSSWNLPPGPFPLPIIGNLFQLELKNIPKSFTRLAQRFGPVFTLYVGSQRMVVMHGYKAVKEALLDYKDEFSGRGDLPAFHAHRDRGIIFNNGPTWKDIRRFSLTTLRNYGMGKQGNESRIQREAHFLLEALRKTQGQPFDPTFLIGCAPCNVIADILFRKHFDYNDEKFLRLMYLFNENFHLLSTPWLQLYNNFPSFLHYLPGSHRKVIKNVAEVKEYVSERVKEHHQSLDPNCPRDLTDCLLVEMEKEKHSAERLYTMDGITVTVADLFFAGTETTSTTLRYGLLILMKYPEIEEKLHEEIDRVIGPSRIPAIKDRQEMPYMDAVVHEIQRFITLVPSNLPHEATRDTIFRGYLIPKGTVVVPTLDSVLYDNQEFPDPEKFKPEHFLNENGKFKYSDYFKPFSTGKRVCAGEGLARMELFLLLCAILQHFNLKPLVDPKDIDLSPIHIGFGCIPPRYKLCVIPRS
T4 sequence (P11712 whole entry): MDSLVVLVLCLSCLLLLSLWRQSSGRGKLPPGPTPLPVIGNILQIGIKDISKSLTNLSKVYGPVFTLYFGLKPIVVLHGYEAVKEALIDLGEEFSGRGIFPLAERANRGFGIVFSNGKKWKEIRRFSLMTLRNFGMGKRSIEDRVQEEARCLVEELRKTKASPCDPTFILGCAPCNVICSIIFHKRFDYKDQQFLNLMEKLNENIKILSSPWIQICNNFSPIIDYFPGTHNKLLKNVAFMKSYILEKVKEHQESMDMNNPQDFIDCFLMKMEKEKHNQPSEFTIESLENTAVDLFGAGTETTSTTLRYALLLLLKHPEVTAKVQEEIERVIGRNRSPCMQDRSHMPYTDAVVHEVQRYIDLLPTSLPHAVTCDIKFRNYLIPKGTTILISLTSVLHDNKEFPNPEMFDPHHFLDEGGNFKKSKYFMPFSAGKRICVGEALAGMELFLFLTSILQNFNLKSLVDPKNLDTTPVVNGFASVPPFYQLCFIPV
Chain of P-glycoprotein (P08183 whole entry): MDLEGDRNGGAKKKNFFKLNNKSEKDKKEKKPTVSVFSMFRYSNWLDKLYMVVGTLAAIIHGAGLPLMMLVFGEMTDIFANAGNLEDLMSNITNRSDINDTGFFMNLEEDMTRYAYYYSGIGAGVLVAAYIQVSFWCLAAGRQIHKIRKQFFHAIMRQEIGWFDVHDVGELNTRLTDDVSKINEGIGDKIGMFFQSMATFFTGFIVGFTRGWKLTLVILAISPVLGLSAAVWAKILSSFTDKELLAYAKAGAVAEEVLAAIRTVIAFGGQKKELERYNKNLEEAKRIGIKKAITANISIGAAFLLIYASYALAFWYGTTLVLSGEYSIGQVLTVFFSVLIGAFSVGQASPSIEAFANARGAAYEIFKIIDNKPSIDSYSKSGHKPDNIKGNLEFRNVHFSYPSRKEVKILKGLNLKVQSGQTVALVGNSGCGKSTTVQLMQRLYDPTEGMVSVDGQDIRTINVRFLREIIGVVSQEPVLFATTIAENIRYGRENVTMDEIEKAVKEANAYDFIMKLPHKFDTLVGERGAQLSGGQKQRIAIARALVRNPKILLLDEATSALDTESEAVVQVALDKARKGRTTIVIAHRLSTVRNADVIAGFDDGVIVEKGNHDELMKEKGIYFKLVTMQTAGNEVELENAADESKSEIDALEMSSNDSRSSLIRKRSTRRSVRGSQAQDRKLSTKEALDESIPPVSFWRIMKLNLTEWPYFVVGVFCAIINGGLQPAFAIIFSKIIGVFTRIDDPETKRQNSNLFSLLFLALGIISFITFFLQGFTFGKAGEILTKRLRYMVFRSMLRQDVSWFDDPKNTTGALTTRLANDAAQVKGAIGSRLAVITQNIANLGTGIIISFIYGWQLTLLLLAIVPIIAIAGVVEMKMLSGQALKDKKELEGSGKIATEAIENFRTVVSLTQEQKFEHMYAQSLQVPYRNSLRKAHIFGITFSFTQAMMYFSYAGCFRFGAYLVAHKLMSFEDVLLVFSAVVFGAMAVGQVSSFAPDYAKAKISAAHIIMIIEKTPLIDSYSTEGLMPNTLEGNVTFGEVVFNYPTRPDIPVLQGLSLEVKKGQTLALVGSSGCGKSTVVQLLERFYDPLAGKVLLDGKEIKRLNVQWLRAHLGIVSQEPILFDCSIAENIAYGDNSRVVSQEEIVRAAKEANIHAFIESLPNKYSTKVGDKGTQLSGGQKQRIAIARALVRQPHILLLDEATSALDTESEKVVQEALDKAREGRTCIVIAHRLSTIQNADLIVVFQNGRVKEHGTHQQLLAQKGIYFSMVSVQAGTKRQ

SMILES: N#Cc1ccc(C(F)(c2ccc(C#N)cc2)n2cncn2)cc1 [Form A leflutrozole, 4-[(4-cyanophenyl)-fluoro-(1,2,4-triazol-1-yl)methyl]benzonitrile]
- degradation on exposure to air (in words) [1]: does not degrade readily when exposed to air

- IC50 [2]: > 50 µM
- inhibition of P-glycoprotein [3]: not determined to be an inhibitor
- IC50 [4]: > 50 µM
- IC50 [5]: > 50 µM
- IC50 [6]: > 50 µM
- AUC(0-inf) ([7]; iv, 1 mg/kg i.v.): 34 µM·h
- AUC(0-t) ([7]; iv, 1 mg/kg i.v.): 21 µM·h
- clearance ([7]; iv, 1 mg/kg i.v.): 1.5 mL/min
- half-life ([7]; iv, 1 mg/kg i.v.): 13 h
- AUC(0-inf) ([7]; po, 2.5 mg/kg p.o.): 70.2 µM·h
- AUC(0-t) ([7]; po, 2.5 mg/kg p.o.): 61.7 µM·h
- Cmax ([7]; po, 2.5 mg/kg p.o.): 2930 nM
- half-life ([7]; po, 2.5 mg/kg p.o.): 13 h
- bone specific alkaline phosphatase ([8]; 0.1 mg treatment arm only): significant increase
- change in BMD for the hip or femoral neck ([8]; week 48): no significant change
- percentage decrease of lumbar BMD (DEXA) ([8]; week 48, any treatment group): ≥ −3%
- predominant mechanism of elimination [9]: metabolism
- unchanged leflutrozole excreted via urine ([9]; oral dosing): 9%
- half-life ([9]; rat, plasma, oral): 78 h
- CLint scaled [10]: < 4.6 mL/min/kg
- half-life [10]: > 5 h
- BAV 0-inf ([11]; 1 mg/kg p.o., Suspension 0.5% HPC): ≥100%
- clearance [11, 12]: 0.383 mL/min
- AUC(0-inf) [11, 12]: 123 µM·h
- half-life ([11]; rat, in vivo, iv, 1 mg/kg i.v., PEG200-0.9% Saline-solution 40/60, read-out: T1/2 (converted)): 33.1 h
- AUC(0-t) [11, 12]: 79.4 µM·h
- AUC(0-inf) [11, 13]: 143 µM·h
- Cmax [11, 13]: 1750 nM
- half-life ([11]; rat, in vivo, po, 1 mg/kg p.o., PEG200-water-solution 40/60, read-out: T1/2 (converted)): 49.7 h
- AUC(0-inf) [11, 14]: 245 µM·h
- Cmax [11, 14]: 1810 nM
- half-life ([11]; rat, in vivo, po, 1 mg/kg p.o., Suspension 0.5% HPC, read-out: T1/2 (converted)): 101 h
- AUC(0-t) [11, 13]: 70.2 µM·h
- AUC(0-t) [11, 14]: 163 µM·h
- half-life ([11]; rat, in vivo, po, read-out: half-life (converted)): 101 h
SMILES: N#Cc1ccc(C(F)(c2ccc(C#N)cc2)n2cncn2)cc1 [leflutrozole, 4-[(4-cyanophenyl)-fluoro-(1,2,4-triazol-1-yl)methyl]benzonitrile]
- serum testosterone change from baseline ([8]; 0.1 mg): 243.0 ng/dL
- serum testosterone level ([8]; 0.1 mg): 494.9 ng/dL
- serum testosterone change from baseline ([8]; 0.3 mg): 290.6 ng/dL
- serum testosterone level ([8]; 0.3 mg): 549.7 ng/dL
- serum testosterone change from baseline ([8]; 1.0 mg): 376.2 ng/dL
- serum testosterone level ([8]; 1.0 mg): 595.1 ng/dL
- bone turnover markers (type I collagen C-telopeptides, procollagen-1 N-terminal propeptide, osteocalcin) ([8]; by week 48): increases in all leflutrozole treatment groups
- clinical meaning of reductions in BMD of the lumbar spine ([8]; week 48): did not indicate clinically meaningful osteopenia or osteoporosis
